Results taken from patent US20230348422A1, “ALBICIDIN DERIVATIVES, THEIR USE AND SYNTHESIS” (TECHNISCHE UNIVERSITÄT BERLIN, priority 2020, published 2023).
In brackets after ≈: the same amount, converted by molar mass. Read-outs that look alike come from different tables or passages of the source.

What was measured:
Experiment in all cases: Microdilution assay, MIC
Assay type in all cases: cell-based
M. phlei DSM 750 = details: Mycolicibacterium phlei, read-out: MIC M. phlei DSM 750
E. coli BW25113 = details: Escherichia coli, read-out: MIC E. coli BW25113
B. subtilis DSM 10 = details: Bacillus subtilis, read-out: MIC B. subtilis DSM 10
Protocol: (§1) The tests were performed using the micro dilution method.
(§2) The determination of MIC values was performed according to the ninth edition of the Approved Standard M07-A9 (CLSI. Methods for Dilution Antimicrobial Susceptibility Tests for Bacteria That Grow Aerobically; Approved Standard-Ninth Edition. CLSI document M07-A9. Wayne, PA: Clinical and Laboratory Standards Institute; 2012.)
(§3) The test was carried out for four different bacterial strains (E. coli DSM 1116 [gram negative], B. subtilis DSM 10 [gram positive], M. luteus DSM 1790 [gram positive], S. typhimurium TA100 [gram negative]). 20 μL of cryo stock of each strain were inoculated in 20 mL of LB media (Lysogeny broth: 10 g/L peptone, 5 g/L yeast extract, 5 g/L NaCl) followed by incubation over night at 37° C., 200 rpm. The test inoculum was adjusted by the 0.5 McFarland Standard (OD625 from 0.08 to 0.1). Within 15 min of preparation, the adjusted inoculum suspension was diluted in MHBII media (BBL TM Mueller-Hinton Broth II, Becton, Dickinson and Company, New Jersey/USA) so that each well contained approximately 5×10^5 CFU/mL in a final volume of 100 μL. 95 μL of the inoculum were applied per well and 5 μL of the (diluted) antibiotic substance were added.
(§4) Previously the dry antibiotic compounds were dissolved in DMSO (100%) with a concentration of 2560 μg/mL and the resulting stock solutions were further diluted in DMSO (100%). 5 μL of each antibiotic dilution were applied to the microdilution tray to reach final concentrations of 64 μg/mL to 0.008 μg/mL. One row of each well plate was left as a growth control without antibiotic substances and another row of the microdilution tray was used as sterility control (only MHB II-media). The antimicrobial effect of the solvent (DMSO) was tested by adding 5 μL DMSO to several wells without antibiotics. Purity check and cell titer control were performed according to International Standard M07-A9 on Mueller-Hinton II Agar (Mueller Hinton II Broth, 15 g/L agar-agar). Both microdilution trays and agar plates were incubated at 37° C. for 20 h and subsequently analyzed visually.
(§5) The potency of an antibiotic is determined by the minimum inhibitory concentration (MIC). Contrary to intuition, a particularly low value is equated with a high potency.

E. coli DSM 1116 = details: Escherichia coli, read-out: MIC E. coli DSM 1116
Protocol: as §1, §2, §3, §4, §5

S. typhimurium TA 100 = details: Salmonella enterica, 20 h, read-out: MIC S. typhimurium TA 100
Protocol: as §1, §2, §3, §4, §5

M. luteus DSM 1790 = details: Micrococcus luteus, read-out: MIC M. luteus DSM 1790
Protocol: as §1, §2, §3, §4, §5

[1] = DSM750, Gram-positive, MHBII media, 37° C., 20 h
[2] = BW25113, Gram-negative, MHBII media, 37° C., 20 h
[3] = DSM10, Gram-positive, MHBII media, 37° C., 20 h
[4] = DSM1116, Gram-negative, MHBII media, 37° C., 20 h
[5] = Gram-negative, MHBII media, 37° C.
[6] = DSM1790, Gram-positive, MHBII media, 37° C., 20 h

Row | MIC (M. phlei DSM 750; [1]) | MIC (E. coli BW25113; [2]) | MIC (B. subtilis DSM 10; [3]) | MIC (E. coli DSM 1116; [4]) | MIC (S. typhimurium TA 100; [5]) | MIC (M. luteus DSM 1790; [6]) | Structure (SMILES) | MIC (M. phlei DSM 750; DSM750, 20 h) | MIC (E. coli BW25113; BW25113, 20 h) | MIC (B. subtilis DSM 10; DSM10, 20 h) | MIC (E. coli DSM 1116; DSM1116, 20 h) | MIC (S. typhimurium TA 100) | MIC (M. luteus DSM 1790; DSM1790, 20 h)
1 | 1 µg/mL (≈ 1.19 µM) | 0.063 µg/mL (≈ 0.075 µM) | 0.25 µg/mL (≈ 0.298 µM) | 0.063 µg/mL (≈ 0.075 µM) | ≤ 0.016 µg/mL | 0.5 µg/mL (≈ 0.595 µM) | COc1ccc(C#Cc2ccc(C(=O)N[C@@H](Cc3cnn[nH]3)C(=O)Nc3ccc(C(=O)Nc4ccc(C(=O)Nc5ccc(C(=O)O)c(O)c5OC)c(O)c4OC)cc3)cc2)cc1 [Compound 2a] |  |  |  |  |  | 
2 | 1 µg/mL (≈ 1.21 µM) | 0.125 µg/mL (≈ 0.151 µM) | 2 µg/mL (≈ 2.42 µM) | 0.063 µg/mL (≈ 0.0763 µM) | 0.031 µg/mL (≈ 0.0375 µM) | 2 µg/mL (≈ 2.42 µM) | COc1c(NC(=O)c2ccc(NC(=O)c3ccc(NC(=O)[C@H](Cc4cnn[nH]4)NC(=O)c4ccc(C#Cc5ccc(O)cc5)cc4)cc3)c(OC)c2O)ccc(C(=O)O)c1O [Compound 5] |  |  |  |  |  | 
3 | 0.5 µg/mL (≈ 0.577 µM) | 0.063 µg/mL (≈ 0.0728 µM) | 0.063 µg/mL (≈ 0.0728 µM) | 0.063 µg/mL (≈ 0.0728 µM) | 0.016 µg/mL (≈ 0.0185 µM) | 0.25 µg/mL (≈ 0.289 µM) | COc1c(C#Cc2ccc(NC(=O)[C@H](Cc3cnn[nH]3)NC(=O)c3ccc(NC(=O)/C(C)=C/c4ccc(O)cc4)cc3)cc2)ccc(C(=O)Nc2ccc(C(=O)O)c(O)c2OC)c1O [Compound 18] |  |  |  |  |  | 
4 | ≥ 8 µg/mL | ≥ 8 µg/mL | ≥ 8 µg/mL | ≥ 8 µg/mL | ≥ 8 µg/mL | ≥ 8 µg/mL | COc1c(NC(=O)c2ccc(NC(=O)c3ccc(NC(=O)[C@H](Cc4cnn[nH]4)NC(=O)c4ccc5[nH]c(-c6ccc(O)cc6)nc5c4)cn3)c(OC)c2O)ccc(C(=O)O)c1O [Compound 33] |  |  |  |  |  | 
5 | 4 µg/mL (≈ 4.82 µM) | 0.25 µg/mL (≈ 0.301 µM) | 2 µg/mL (≈ 2.41 µM) | 0.5 µg/mL (≈ 0.603 µM) | 0.125 µg/mL (≈ 0.151 µM) | 2 µg/mL (≈ 2.41 µM) | COc1c(NC(=O)c2ccc(NC(=O)c3ccc(NC(=O)[C@H](Cc4cnn[nH]4)NC(=O)c4ccc(CCc5ccc(O)cc5)cc4)cc3)c(OC)c2O)ccc(C(=O)O)c1O [Compound 9] |  |  |  |  |  | 
6 |  |  |  |  |  |  | COc1c(NC(=O)c2ccc(NC(=O)c3ccc(NC(=O)[C@H](Cc4cnn[nH]4)NC(=O)c4ccc(C#Cc5ccc(C#N)cc5)cc4)cc3)c(OC)c2O)ccc(C(=O)O)c1O [Compound 1] | 1 µg/mL (≈ 1.2 µM) | 0.031 µg/mL (≈ 0.0371 µM) | 0.25 µg/mL (≈ 0.299 µM) | ≤ 0.016 µg/mL | ≤ 0.016 µg/mL | 0.25 µg/mL (≈ 0.299 µM)
7 | 4 µg/mL (≈ 4.83 µM) | 0.25 µg/mL (≈ 0.302 µM) | 0.5 µg/mL (≈ 0.604 µM) | 0.5 µg/mL (≈ 0.604 µM) | 0.125 µg/mL (≈ 0.151 µM) | 1 µg/mL (≈ 1.21 µM) | COc1c(NC(=O)c2ccc(NC(=O)c3ccc(NC(=O)[C@H](Cc4cnn[nH]4)NC(=O)c4ccc(/C=C/c5ccc(O)cc5)cc4)cc3)c(OC)c2O)ccc(C(=O)O)c1O [Compound 3] |  |  |  |  |  | 
8 | 0.5 µg/mL (≈ 0.576 µM) | 0.125 µg/mL (≈ 0.144 µM) | 0.063 µg/mL (≈ 0.0726 µM) | 0.125 µg/mL (≈ 0.144 µM) | 0.063 µg/mL (≈ 0.0726 µM) | 0.125 µg/mL (≈ 0.144 µM) | COc1c(/C=C/c2ccc(NC(=O)[C@H](Cc3cnn[nH]3)NC(=O)c3ccc(NC(=O)/C(C)=C/c4ccc(O)cc4)cc3)cc2)ccc(C(=O)Nc2ccc(C(=O)O)c(O)c2OC)c1O [Compound 17] |  |  |  |  |  | 
9 | 8 µg/mL (≈ 9.47 µM) | 0.25 µg/mL (≈ 0.296 µM) | 2 µg/mL (≈ 2.37 µM) | 0.5 µg/mL (≈ 0.592 µM) | 0.125 µg/mL (≈ 0.148 µM) | 4 µg/mL (≈ 4.73 µM) | COc1c(NC(=O)c2ccc(NC(=O)c3ccc(NC(=O)[C@H](Cc4cnn[nH]4)NC(=O)c4ccc(NC(=N)c5ccc(O)cc5)cc4)cn3)c(OC)c2O)ccc(C(=O)O)c1O [Compound 32] |  |  |  |  |  | 
10 | 0.5 µg/mL (≈ 0.604 µM) | 0.031 µg/mL (≈ 0.0374 µM) | 0.25 µg/mL (≈ 0.302 µM) | 0.031 µg/mL (≈ 0.0374 µM) | ≤ 0.016 µg/mL | 0.25 µg/mL (≈ 0.302 µM) | COc1c(NC(=O)c2ccc(NC(=O)c3ccc(NC(=O)[C@H](Cc4cnn[nH]4)NC(=O)c4ccc(C#Cc5ccc(F)cc5)cc4)cc3)c(OC)c2O)ccc(C(=O)O)c1O [Compound 6] |  |  |  |  |  | 
11 |  |  |  |  |  |  | COc1c(/C=C(\F)c2ccc(NC(=O)[C@H](Cc3cnn[nH]3)NC(=O)c3ccc(NC(=O)/C(C)=C/c4ccc(O)cc4)cc3)cc2)ccc(C(=O)Nc2ccc(C(=O)O)c(O)c2OC)c1O [Compound 16] | 0.25 µg/mL (≈ 0.282 µM) | 0.063 µg/mL (≈ 0.0711 µM) | 0.031 µg/mL (≈ 0.035 µM) | 0.063 µg/mL (≈ 0.0711 µM) | 0.031 µg/mL (≈ 0.035 µM) | 0.063 µg/mL (≈ 0.0711 µM)
12 | 1 µg/mL (≈ 1.19 µM) | 0.063 µg/mL (≈ 0.0749 µM) | 0.25 µg/mL (≈ 0.297 µM) | 0.063 µg/mL (≈ 0.0749 µM) | ≤ 0.016 µg/mL | 0.5 µg/mL (≈ 0.595 µM) | COc1ccc(C#Cc2ccc(C(=O)N[C@@H](Cc3cnn[nH]3)C(=O)Nc3ccc(C(=O)Nc4ccc(C(=O)Nc5ccc(C(=O)O)c(O)c5OC)c(O)c4OC)cc3)cc2)cn1 [Compound 4] |  |  |  |  |  | 

Row | Structure (SMILES) | MIC (M. phlei DSM 750; [1]) | MIC (E. coli BW25113; [2]) | MIC (B. subtilis DSM 10; [3]) | MIC (E. coli DSM 1116; [4]) | MIC (S. typhimurium TA 100; [5]) | MIC (M. luteus DSM 1790; [6]) | MIC (M. phlei DSM 750; DSM750, 20 h) | MIC (E. coli BW25113; BW25113, 20 h) | MIC (B. subtilis DSM 10; DSM10, 20 h) | MIC (E. coli DSM 1116; DSM1116, 20 h) | MIC (S. typhimurium TA 100) | MIC (M. luteus DSM 1790; DSM1790, 20 h)
13 | C#Cc1ccc(C(=O)Nc2ccc(C(=O)N[C@@H](Cc3cnn[nH]3)C(=O)Nc3ccc(C(=O)Nc4ccc(C(=O)Nc5ccc(C(=O)O)c(O)c5OC)c(O)c4OC)cc3)cc2)cc1 [Compound 14] | 1 µg/mL (≈ 1.17 µM) | 0.063 µg/mL (≈ 0.0739 µM) | 0.5 µg/mL (≈ 0.586 µM) | 0.063 µg/mL (≈ 0.0739 µM) | 0.063 µg/mL (≈ 0.0739 µM) | 0.5 µg/mL (≈ 0.586 µM) |  |  |  |  |  | 
14 | COc1c(NC(=O)c2ccc(NC(=O)c3ccc(NC(=O)[C@H](Cc4cnn[nH]4)NC(=O)c4ccc(NC(=O)c5ccc(-c6nnn[nH]6)cc5)cc4)cc3)c(OC)c2O)ccc(C(=O)O)c1O [Compound 15] | 8 µg/mL (≈ 8.92 µM) | 0.25 µg/mL (≈ 0.279 µM) | 2 µg/mL (≈ 2.23 µM) | 0.25 µg/mL (≈ 0.279 µM) | 0.063 µg/mL (≈ 0.0702 µM) | 8 µg/mL (≈ 8.92 µM) |  |  |  |  |  | 
